Results reported in paper PMC10666288, “Unveiling the Catalytic Mechanism of a Processive Metalloaminopeptidase” (Biochemistry, 2023).
“And” between values parts separate entries of the source, which are not always exact repeats. Equal entries are not always repeated.

Key:
PaPepA [1] = target: T1, PaPepA (Pseudomonas aeruginosa, UniProt Q02RY8); experiment: Metal activation of Leu-pNA cleavage (metal varied, Leu-pNA fixed); type: biochemical; parameters: GG stays after cleavage) (N); made in house; host or cells: E. coli BL21(DE3); conditions: with 2 mM Leu-pNA
Description: A BMG Labtech POLARstar Omega plate reader was used for activity assays and kinetic studies involving amino acids conjugated to para-nitroaniline (pNA) (Sigma) or peptides as substrates. Assays were carried out at 25 °C in clear half-area 96-well plates (Greiner Bio-One). […] For kinetic assays investigating Leu-AMC as a substrate, a SpectraMax M2E was used. Reactions were carried out using black half-area 96-well plates with clear bottoms (Greiner Bio-One). Product formation was assessed by monitoring changes in fluorescence, with the excitation wavelength set at 341 nm and emission at 441 nm. The cutoff was 420 nm. PMT gain was set to medium, with six flashes per read. […] Calibration curves of pNA concentration vs absorbance and AMC vs fluorescence were constructed, and initial rate values were divided by the slope of these calibration curves to reveal the rate of product formation over time (Table S2).
For all assays excluding pH dependence curves, buffer conditions were as follows: 100 mM HEPES, 50 mM KCl, and pH 8.0. For assays carried out under pseudo-first-order conditions, one reaction component was fixed and in excess, while the other was varied. […] For assays involving variation of aa-pNA or aa-AMC, MnCl2 was added to a final concentration of 3 mM.

PaPepA [2] = target: T1, PaPepA; experiment: Pre-steady-state stopped-flow kinetics with global fit; type: biochemical; parameters: GG stays after cleavage) (N); made in house; host or cells: E. coli BL21(DE3)
Description: An Applied Photophysics SX20 stopped-flow spectrofluorimeter was used to perform kinetic measurements under pre-steady-state conditions. The instrument was equipped with a xenon lamp, a 5 μL mixing cell, and a circulating water bath to maintain constant temperature. All reactions were carried out in 100 mM HEPES (pH 8.0) and 50 mM KCl at 25 °C. Enzyme and metal ions were kept in one syringe, while the other substrate (Leu-pNA or Leu-AMC) was kept in the second syringe. The reaction was triggered by rapid mixing of 55 μL from each syringe. Three traces with 10,000 points per trace were collected per experiment.
For absorbance measurements, product formation was monitored by reading the pNA absorbance at 405 nm (5 mm path length). Multiple turnover rates were measured in the presence of saturating concentrations of both metal and Leu-pNA. PaPepA was present at 1 or 10 μM, MnCl2 was present at 3 mM, and Leu-pNA was present at 250 μM. For fluorescence measurements, a path length of 1 mm was used. Reactions were followed by monitoring the appearance of a 7-amino-4-methylcoumarin (AMC) fluorophore following PaPepA-catalyzed breakdown of Leu-AMC. An excitation wavelength of 341 nm was used with a 400 nm cutoff filter for the emission. Slits were 1 nm for excitation and 2 nm for emission.
Experiments under single turnover conditions monitored fluorescence change with a detector voltage of 300 V, 0.1 μM Leu-AMC, 1.5 mM MnCl2, and varying PaPepA (0.5, 1, 2, 4, 8, 16, or 32 μM). Experiments under multiple turnover conditions monitored fluorescence change with a detector voltage of 250 V, 50 μM Leu-AMC, 1.2 μM PaPepA and varying concentrations of MnCl2 (0.2, 0.4, 0.6, 1.2, 2.4, 6, 9, 12, 18, 24, 60, 120, 1200, or 3600 μM).
Calibration curves of known concentrations of AMC were performed at detector voltages of 250 and 300 V. STO and MTO curves were divided by the slope of these calibration curves to convert the change in fluorescence observed to the concentration of AMC produced.
Pre-steady-state data were imported into KinTek Global Explorer and fit to linear or single-exponential equations using the aFit function to obtain standard deviation estimates. A kinetic model with five steps was considered, and rate constants and outputs were fitted according to this model. Initial estimates for rate constants were based on kcat and KM values. The FitSpace Editor was employed to determine confidence intervals for each of the rate constants. More details including model fitted and parameters used are available in the Supporting Information.
Supporting information note 4: Kintek Global Explorer fitting of stopped flow data Both MTO and STO pre-steady-state data were fit according to the mode described in Figure 4A with scaling factors for each fluorescent species (EP and P) to account for differences in AMC fluorescence whilst in complex with PaPepA versus free in solution. Scaling factors were different across STO and MTO experiments as both were carried out using different detector voltages.
The model that best fitted acquired data was as below, where F is metal free enzyme, E1 is PaPepA with one Mn2+ ion, E is PepA with two Mn2+ ions, S is Leu- […]
For fitting, k1 and k-1 ratios were constrained (linked) based KD for Mn2+ binding as measured by ITC (12nM). Initially, k2 and k-2 were allowed to vary without constraints, and values best fitted as well as Fitspace lower and upper boundaries are reported in Table 2. The value for k1 was best fitted as diffusion limited, and therefore was fixed in further fitting cycles. The best fitted value for k-2 was high and unconstrained, and therefore also fixed at 1000 s-1 for further fitting cycles. k3, k-3, k4, and k5 were not constrained. Multiple iterations of fitting were performed, and best fit values recorded. k1, k2, k3, k-3, k4, and k5 were evaluated using FitSpace Explorer to generate confidence intervals for each of these rate constants. […]

[3] = multiple turnover, 50 μM Leu-AMC, […] PaPepA

T1 sequence (Q02RY8 whole entry): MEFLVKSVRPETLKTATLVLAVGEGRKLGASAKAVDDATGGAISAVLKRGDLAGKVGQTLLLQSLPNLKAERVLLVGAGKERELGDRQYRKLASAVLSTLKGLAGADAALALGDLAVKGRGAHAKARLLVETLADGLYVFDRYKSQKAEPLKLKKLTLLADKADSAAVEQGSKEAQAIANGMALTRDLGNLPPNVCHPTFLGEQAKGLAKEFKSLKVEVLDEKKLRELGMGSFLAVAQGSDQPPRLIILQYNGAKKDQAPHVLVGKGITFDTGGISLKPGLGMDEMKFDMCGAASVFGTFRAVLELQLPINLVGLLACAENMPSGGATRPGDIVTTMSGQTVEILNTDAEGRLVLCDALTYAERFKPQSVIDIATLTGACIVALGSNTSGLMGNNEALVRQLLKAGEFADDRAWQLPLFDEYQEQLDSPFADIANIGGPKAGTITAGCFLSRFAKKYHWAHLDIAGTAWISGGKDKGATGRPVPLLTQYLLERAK

[Mn+2] [Mn^2+]
KACT (PaPepA [1]; pH 8.0): 0.10 ± 0.01 mM | kcat (PaPepA [1]; pH 8.0): 0.27 s^–1 and 0.274 ± 0.004 s^–1 | kcat/KACT (PaPepA [1]; pH 8.0): 2.7 ± 0.2 s^–1mM^–1 | KACT (PaPepA [1]; pH 8.0, as given in text): 0.1 mM | k1, best-fitted value (PaPepA [2]; F + Mn = E1, global fit of MTO and STO data): 1000 ± 53 μM^–1 s^–1 | molar excess of metal over PaPepA at half maximal rate (PaPepA [2]; [3]): 24 fold | molar excess of metal over PaPepA at plateau (PaPepA [2]; [3]): 300 fold
